The values below come from patent publication US20170369878A1, “MICRORNA COMBINATIONS FOR ANTI-CANCER THERAPEUTICS” (Massachusetts Institute of Technology, priority 2015, published 2017).

In this test the test system is OVCAR8 cells and OVCAR8-ADR cells. The test can be described thus: Docetaxel dose-response (MTT), resistant versus parental line. Type of test: cell-based, human. As to conditions: docetaxel three days, FIG. 13. On the procedure: OVCAR8 cells (triangles) and OVCAR8-ADR (squares) cells (docetaxel-resistant derivative of OVCAR8) cells were treated with docetaxel at indicated doses for three days and subjected to the MTT assay. Cell viabilities were compared to the respective no drug controls. The OVCAR8-ADR cell line has a ˜3-fold higher IC50 than the parental OVCAR8 cell line. Data represent the mean±SD (n=3).
For the MTT assay, 100 μl of MTT (3-(4,5-dimethylthiazol-2-yl)-2,5-diphenyltetrazolium bromide) solution (Sigma) was added to the cell cultures in 96-well plates and incubated at 37° C. with 5% CO2 for 2 hours. Viable cells convert the soluble MTT salt to insoluble blue formazan crystals. Formazan crystals formed were dissolved with 100 μl of solubilization buffer at 37° C. The absorbance of the solubilized formazan was measured at an optical density (OD) of 570 nm (along with the reference OD at 650 nm) using a Synergy H1 Microplate Reader (BioTek). For the trypan blue exclusion assay, cells were trypsinized and stained with 0.4% trypan blue dye solution (Sigma). Viable cells were counted in four different fields of a hemacytometer under microscopy.

With `CC(=O)O[C@@]12CO[C@@H]1C[C@H](O)[C@@]1(C)C(=O)[C@H](O)C3=C(C)[C@@H](OC(=O)[C@H](O)[C@@H](NC(=O)OC(C)(C)C)c4ccccc4)C[C@@](O)([C@@H](OC(=O)c4ccccc4)[C@H]21)C3(C)C` [docetaxel], the “IC50 of OVCAR8-ADR relative to parental OVCAR8” value is about 3 fold.
